# Data taken from patent US12629401B2, “Method for preparing ginseng extract enriched with rare ginsenosides and applications thereof” (priority 2023, dated 2026).
# System: SD1347 nematodes
# Assay: Mitochondrial health test: muscle fragmentation score by confocal microscopy
# Assay type: in vivo, C. hidradenitis elegans nematodes
# Conditions: 100 μg/mL JadeAging, 11.4 μg/mL urolithin A
# Excerpt: Skeletal sarcopenia is an age-related loss of muscle and strength. Muscle mitochondrial dysfunction is observed at the onset of skeletal sarcopenia, followed by alterations in skeletal muscle segmental architecture, ultimately leading to decreased movement. In recent years, clinical studies have shown that urolithin A improves mitochondrial health and alleviates muscle decline due to aging. In the present study, the fluorescently labeled myocyte nuclei and mitochondria of […] were used to assess whether JadeAging could ameliorate age-related dysfunction.
# METHODS: SD1347 C. hidradenitis elegans nematodes were treated with JadeAging and fluorescently labeled with muscle nuclei and mitochondria, and muscle and mitochondrial health were assessed using confocal microscopy on days 2, 9, and 12 of the adult stage of C. hidradenitis elegans. […]
# Maximum intensity projected confocal images of adult […] animals on days 2, 9 and 12 are shown in FIG. 11, all images are from the “head” region. Healthy muscles, i.e., those of the blank group (VC group), are marked by arrows in the day 2 images and are uniformly streaked; those of the blank group (VC group) are marked by arrows in the day 12 images and show uneven fluorescence. […]
compound,measurement,setting,value
O=c1oc2cc(O)ccc2c2ccc(O)cc12 [urolithin A],protective effect against age-related skeletal muscle reduction (mean fragmentation scores),FIG. 13,significant protective effect
same,mitochondrial health (change of fragmentation score distribution with age),"days 2, 9, 12, FIG. 12",superior to that of the blank group (VC group)
